In article PMC12073449, “Development of a Mechanism of Action-Reflective Cell-Based Reporter Gene Assay for Measuring Bioactivities of Therapeutic Glucagon-like Peptide-2 Analogues” (Molecules, 2025):
Ends that are not written are not given here.

System: HEK293-GLP-2R-Luc cells

In the case of “HGEGTFSSELATILDALAARDFINWLIATKITDKKKKKK-NH2 [glepaglutide]”, the “log2 (TD/Ctrl) CACNB1” value (Qvalue 4.04 × 10^−5) is reported as 1.075, the “log2 (TD/Ctrl) CHAC1” value (Qvalue 4.05 × 10^−4) is reported as 1.141 and the “log2 (TD/Ctrl) PDK4” value (Qvalue 4.05 × 10^−7) is reported as 1.463. The “log2 (TD/Ctrl) GUCY1A1” value (Qvalue 4.19 × 10^−5) was −1.107, the “log2 (TD/Ctrl) SNAP25” value (Qvalue 4.24 × 10^−5) was 1.698 and the “log2 (TD/Ctrl) CALCB” value (Qvalue 4.28 × 10^−58) was 3.658. For the same substance, the “log2 (TD/Ctrl) PDE8B” value (Qvalue 4.35 × 10^−6) was 1.08, the “log2 (TD/Ctrl) FAM86B2” value (Qvalue 4.40 × 10^−6) was 1.144 and the “log2 (TD/Ctrl) CD55” value (Qvalue 4.43 × 10^−29) was 1.554. For the same substance, the “log2 (TD/Ctrl) PDE10A” value (Qvalue 4.45 × 10^−11) was 1.052, the “log2 (TD/Ctrl) IGFBP5” value (Qvalue 4.48 × 10^−29) was −1.803 and the “log2 (TD/Ctrl) PPP1R15A” value (Qvalue 4.52 × 10^−19) was 1.729. The “log2 (TD/Ctrl) FAM131B” value (Qvalue 4.57 × 10^−4) was 2.284, the “log2 (TD/Ctrl) DCLK1” value (Qvalue 4.77 × 10^−6) was 1.118 and the “log2 (TD/Ctrl) ARC” value (Qvalue 4.77 × 10^−21) was 2.548. The “log2 (TD/Ctrl) TRMT11” value (Qvalue 4.83 × 10^−7) was 1.007, the “log2 (TD/Ctrl) BRSK1” value (Qvalue 4.84 × 10^−4) was 1.033 and the “log2 (TD/Ctrl) CXCL8” value (Qvalue 4.89 × 10^−10) was 2.264. The “log2 (TD/Ctrl) MMP10” value (Qvalue 4.91 × 10^−4) was 2.63, the “log2 (TD/Ctrl) NTS” value (Qvalue 4.98 × 10^−8) was 3.901 and the “log2 (TD/Ctrl) INKA2” value (Qvalue 5.19 × 10^−4) was −1.14. The “log2 (TD/Ctrl) RSRC2” value (Qvalue 5.28 × 10^−10) was 1.09, the “log2 (TD/Ctrl) PCDH9” value (Qvalue 5.30 × 10^−8) was −1.158 and the “log2 (TD/Ctrl) NCOA5” value (Qvalue 5.31 × 10^−8) was −1.2433. For the same substance, the “log2 (TD/Ctrl) PROCR” value (Qvalue 5.32 × 10^−8) was 1.201, the “log2 (TD/Ctrl) AVPI1” value (Qvalue 5.33 × 10^−8) was 1.192 and the “log2 (TD/Ctrl) IL12A” value (Qvalue 5.36 × 10^−4) was 1.606. For the same substance, the “log2 (TD/Ctrl) CCN2” value (Qvalue 5.36 × 10^−15) was 2.558, the “log2 (TD/Ctrl) PCSK1” value (Qvalue 5.37 × 10^−34) was 5.002 and the “log2 (TD/Ctrl) HSPB8” value (Qvalue 5.44 × 10^−4) was 1.961. The “log2 (TD/Ctrl) CHGB” value (Qvalue 5.45 × 10^−20) was 3.305, the “log2 (TD/Ctrl) LY6K” value (Qvalue 5.54 × 10^−6) was 2.444 and the “log2 (TD/Ctrl) TNFRSF10D” value (Qvalue 5.55 × 10^−11) was −1.432. The “log2 (TD/Ctrl) RNF122” value (Qvalue 5.63 × 10^−24) was 1.985, the “log2 (TD/Ctrl) PAPPA” value (Qvalue 5.75 × 10^−4) was 1.578 and the “log2 (TD/Ctrl) CTH” value (Qvalue 5.77 × 10^−13) was 1.317. For the same substance, the “log2 (TD/Ctrl) ETV5” value (Qvalue 5.77 × 10^−17) was 1.932, the “log2 (TD/Ctrl) FOSL1” value (Qvalue 5.84 × 10^−23) was 3.193 and the “log2 (TD/Ctrl) UBE2QL1” value (Qvalue 5.89 × 10^−10) was 1.897. For the same substance, the “log2 (TD/Ctrl) PCK1” value (Qvalue 5.99 × 10^−8) was 4.954, the “log2 (TD/Ctrl) SYAP1” value (Qvalue 6.03 × 10^−37) was 1.501 and the “log2 (TD/Ctrl) ADAMTS1” value (Qvalue 6.10 × 10^−16) was 1.32. For the same substance, the “log2 (TD/Ctrl) TSPAN18” value (Qvalue 6.12 × 10^−5) was 1.221, the “log2 (TD/Ctrl) ZNF697” value (Qvalue 6.15 × 10^−17) was 1.651 and the “log2 (TD/Ctrl) NME1-NME2” value (Qvalue 6.18 × 10^−4) was 1.069. The “log2 (TD/Ctrl) TAF1D” value (Qvalue 6.18 × 10^−6) was 1.001, the “log2 (TD/Ctrl) GAB2” value (Qvalue 6.27 × 10^−10) was 1.866 and the “log2 (TD/Ctrl) ZNF718” value (Qvalue 6.33 × 10^−4) was −1.3027. The “log2 (TD/Ctrl) OMA1” value (Qvalue 6.34 × 10^−6) was −1.165, the “log2 (TD/Ctrl) EPHA7” value (Qvalue 6.41 × 10^−18) was −1.443 and the “log2 (TD/Ctrl) NR4A3” value (Qvalue 6.44 × 10^−8) was 1.795. For the same substance, the “log2 (TD/Ctrl) AREG” value (Qvalue 6.48 × 10^−5) was 3.509, the “log2 (TD/Ctrl) ZCCHC12” value (Qvalue 6.60 × 10^−42) was 2.11 and the “log2 (TD/Ctrl) CHMP1B” value (Qvalue 6.69 × 10^−14) was 1.048. For the same substance, the “log2 (TD/Ctrl) KBTBD7” value (Qvalue 6.73 × 10^−6) was −1.122, the “log2 (TD/Ctrl) FAM200C” value (Qvalue 6.74 × 10^−4) was −1.19 and the “log2 (TD/Ctrl) EGR1” value (Qvalue 6.76 × 10^−10) was 2.978. For the same substance, the “log2 (TD/Ctrl) PLAUR” value (Qvalue 6.86 × 10^−10) was 1.559, the “log2 (TD/Ctrl) MAP2K6” value (Qvalue 6.95 × 10^−9) was −1.348 and the “log2 (TD/Ctrl) NR4A2” value (Qvalue 7.07 × 10^−23) was 2.428. The “log2 (TD/Ctrl) P2RY11” value (Qvalue 7.12 × 10^−9) was −9.7959, the “log2 (TD/Ctrl) CARMIL2” value (Qvalue 7.13 × 10^−10) was 1.753 and the “log2 (TD/Ctrl) COL7A1” value (Qvalue 7.17 × 10^−4) was −1.612. For the same substance, the “log2 (TD/Ctrl) KRT17” value (Qvalue 7.46 × 10^−4) was 3.685, the “log2 (TD/Ctrl) PTRH1” value (Qvalue 7.65 × 10^−4) was 1.322 and the “log2 (TD/Ctrl) CBARP” value (Qvalue 7.76 × 10^−5) was 1.225. The “log2 (TD/Ctrl) ZBTB12” value (Qvalue 7.78 × 10^−9) was −1.6, the “log2 (TD/Ctrl) CGA” value (Qvalue 7.84 × 10^−76) was 7.042 and the “log2 (TD/Ctrl) SERPINE2” value (Qvalue 7.93 × 10^−10) was 1.136. For the same substance, the “log2 (TD/Ctrl) GABARAPL1” value (Qvalue 8.03 × 10^−15) was 1.405, the “log2 (TD/Ctrl) COL1A1” value (Qvalue 8.07 × 10^−20) was 1.91 and the “log2 (TD/Ctrl) NDRG4” value (Qvalue 8.22 × 10^−4) was 1.306. The “log2 (TD/Ctrl) QRICH2” value (Qvalue 8.25 × 10^−6) was −1.253, the “log2 (TD/Ctrl) CD24” value (Qvalue 8.27 × 10^−27) was 2.289 and the “log2 (TD/Ctrl) ZNF331” value (Qvalue 8.43 × 10^−12) was 1.041. The “log2 (TD/Ctrl) FZD4” value (Qvalue 8.54 × 10^−5) was −1.071, the “log2 (TD/Ctrl) RGS6” value (Qvalue 8.61 × 10^−5) was 4.489 and the “log2 (TD/Ctrl) NR4A1” value (Qvalue 8.67 × 10^−7) was 4.426. The “log2 (TD/Ctrl) BMPER” value (Qvalue 8.87 × 10^−4) was 2.13, the “log2 (TD/Ctrl) IER2” value (Qvalue 9.14 × 10^−13) was 1.167 and the “log2 (TD/Ctrl) INHBA” value (Qvalue 9.22 × 10^−49) was 4.678. For the same substance, the “log2 (TD/Ctrl) SERPINB9” value (Qvalue 9.32 × 10^−11) was 1.4, the “log2 (TD/Ctrl) GADD45B” value (Qvalue 9.33 × 10^−42) was 1.995 and the “log2 (TD/Ctrl) FAM111B” value (Qvalue 9.51 × 10^−4) was −1.222. The “log2 (TD/Ctrl) FHL2” value (Qvalue 9.62 × 10^−6) was 1.082, the “log2 (TD/Ctrl) NFKB2” value (Qvalue 9.77 × 10^−25) was 1.551 and the “log2 (TD/Ctrl) EDA2R” value (Qvalue 9.85 × 10^−6) was −1.374. For the same substance, the “log2 (TD/Ctrl) EGR3” value (Qvalue 9.86 × 10^−8) was 2.228, the “log2 (TD/Ctrl) LAMB3” value (Qvalue 9.88 × 10^−5) was 1.323 and the “log2 (TD/Ctrl) SAP30L” value (Qvalue 9.88 × 10^−7) was −1.0123. For the same substance, the “log2 (TD/Ctrl) SCARA5” value (Qvalue […] 10^−12) was 3.284, the “log2 (TD/Ctrl) GCNA” value (Qvalue […] 10^−17) was 1.602 and the “log2 (TD/Ctrl) TAC1” value (Qvalue […] 10^−76) was 4.689.
